# Data reported in patent US7601746B2 (Shionogi & Co., Ltd., priority 2003, dated 2009).
# Molecular target: T1, human TPO receptor (hTPOR) (Homo sapiens, UniProt P40238)
# T1 construct: expressed in transfected cells; host or cells: BaF-B03 (murine IL-3 dependent cell line)
# T1 sequence (P40238 26-635): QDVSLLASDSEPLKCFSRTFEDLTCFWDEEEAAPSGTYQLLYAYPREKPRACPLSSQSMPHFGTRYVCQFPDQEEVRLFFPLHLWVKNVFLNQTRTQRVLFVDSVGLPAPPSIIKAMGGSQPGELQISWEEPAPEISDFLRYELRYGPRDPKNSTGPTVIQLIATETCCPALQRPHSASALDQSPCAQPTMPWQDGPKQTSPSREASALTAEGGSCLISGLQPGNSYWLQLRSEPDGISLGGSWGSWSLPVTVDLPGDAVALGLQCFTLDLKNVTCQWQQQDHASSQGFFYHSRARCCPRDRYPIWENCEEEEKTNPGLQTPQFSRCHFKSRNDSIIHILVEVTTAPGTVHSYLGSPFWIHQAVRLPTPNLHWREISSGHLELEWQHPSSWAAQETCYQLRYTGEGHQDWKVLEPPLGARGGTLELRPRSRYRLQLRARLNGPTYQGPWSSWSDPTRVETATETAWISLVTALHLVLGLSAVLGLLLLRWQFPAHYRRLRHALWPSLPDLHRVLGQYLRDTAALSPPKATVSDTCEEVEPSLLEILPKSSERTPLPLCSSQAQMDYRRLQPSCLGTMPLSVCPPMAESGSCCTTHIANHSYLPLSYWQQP
# Experiment: Thrombopoietic activity: proliferation of TPO dependent BaF/hTPOR cells (WST-1, absorbance at 450 nm)
# Format: cell-based
# Settings: 20 h + 4 h WST-1, ED50 = half concentration of the concentration showing the maximum thrombopoietic activity, Table 1
# Procedure, shortened: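 Proliferation read-out: WST-1 absorbance at 450 nm after 20 h compound exposure plus 4 h reagent, using IL-3-deprived BaF/hTPOR cells (5×10^4 per well) dependent on human TPO receptor signalling. ED50 defined as half the concentration producing maximal activity.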
row,Compound,EC50 [nM]
1,"COc1c(CCCOCCC(C)C)cccc1-c1csc(NC(=O)c2cc(F)c(/C=C(\C)C(=O)O)c(F)c2)n1 [Compound B1851, (E)-3-[2,6-difluoro-4-(4-{2-methyloxy-3-[3-(3-methylbutyloxy)propyl]phenyl}thiazol-2-ylcarbamoyl)phenyl]-2-methylacrylic acid]",16.8
2,"CC(=Cc1c(Cl)cc(C(=O)Nc2nc(-c3cccc(CCCOCCCC(C)C)c3F)cs2)cc1Cl)C(=O)O [Compound B84, 3-[2,6-dichloro-4-(4-[2-fluoro-3-[3-(4-methylpentyloxy)propyl]phenyl]thiazol-2-ylcarbamoyl)phenyl]-2-methylacrylic acid]",1.02
3,"CCCCCOCc1cccc(-c2csc(NC(=O)c3cc(Cl)c(C=C(C)C(=O)O)c(Cl)c3)n2)c1F [Compound B77, 3-{2,6-dichloro-4-[4-(2-fluoro-3-{n-pentyloxymethyl}phenyl)thiazol-2-ylcarbamoyl]phenyl}-2-methylacrylic acid]",3.06
4,"CCCc1cccc2c1OCc1sc(NC(=O)c3cc(F)c(/C=C(\C)C(=O)O)c(F)c3)nc1-2 [Compound A1308, (E)-3-[2,6-difluoro-4-(6-propyl-4H-chromeno[4,3-d]thiazol-2-ylcabamoyl)phenyl]-2-methylacrylic acid]",12.9
5,"CCOC(CC(C)(C)C)c1cccc(-c2csc(NC(=O)c3cc(Cl)c(C=C(C)C(=O)O)c(Cl)c3)n2)c1F (stereo not shown) [Compound B62, 3-(2,6-dichloro-4-{4-[2-fluoro-3-(1-ethyloxy-3,3-dimethylbutyl)phenyl]thiazol-2-ylcarbamoyl}phenyl)-2-methylacrylic acid]",0.76
6,"COc1c(CCCOCCC(C)C)cccc1-c1csc(NC(=O)c2cc(Cl)c(/C=C(\C)C(=O)O)c(Cl)c2)n1 [Compound B1852, (E)-3-[2,6-dichloro-4-(4-{2-methyloxy-3-[3-(3-methylbutyloxy)propyl]phenyl}thiazol-2-ylcarbamoyl)phenyl]-2-methylacrylic acid]",16.5
7,"CCCOCCCc1cccc2c1CCc1sc(NC(=O)c3cc(F)c(C=C(C)C(=O)O)c(F)c3)nc1-2 [Compound A9, 3-{2,6-difluoro-4-[4,5-dihydro-6-(3-n-propyloxypropyl)naphto[1,2-d]thiazol-2-ylcabamoyl]phenyl}-2-methylacrylic acid]",3
8,CCCOC(c1cccc(-c2csc(NC(=O)c3cc(Cl)c(/C=C(\C)C(=O)O)c(Cl)c3)n2)c1OC)C1CCCCC1 (stereo not shown) [Compound B1102],2.86
9,"3-{2,6-difluoro-4,5-dihydro-4-[6-(3-ethyloxypropyl)naphtho[1,2-d]thiazol-2-ylcabamoyl]phenyl}-2-methylacrylic acid [Compound A8]",2.9

# Further lines, results first:
row,EC50 [nM],Compound
1,3.03,"CCCCCCCCCCOCc1cccc(-c2csc(NC(=O)c3cc(F)c(C=C(C)C(=O)O)c(F)c3)n2)c1F [Compound B32, 3-(2,6-difluoro-4-{4-[2-fluoro-3-(n-decyloxymethyl)phenyl]thiazol-2-ylcarbamoyl}phenyl)-2-methylacrylic acid]"
2,10.3,"CCCCCCCCOc1cccc(-c2csc(NC(=O)c3cc(Cl)c(/C=C(\C)C(=O)O)c(Cl)c3)n2)c1OC [Compound B2005, (E)-3-{2,6-dichloro-4-[4-(2-methyloxy-3-octyloxyphenyl)thiazol-2-ylcarbamoyl]phenyl}-2-methylacrylic acid]"
3,10.1,"CCCCCCCOCCc1cccc(-c2csc(NC(=O)c3cc(F)c(/C=C(\C)C(=O)O)c(F)c3)n2)c1OC [Compound B1952, (E)-3-(2,6-difluoro-4-{4-[3-(2-heptyloxyethyl)-2-methyloxyphenyl]thiazol-2-ylcarbamoyl}phenyl)-2-methylacrylic acid]"
4,2.1,"CCC(CCCc1cccc(-c2csc(NC(=O)c3cc(F)c(C=C(C)C(=O)O)c(F)c3)n2)c1F)OC (stereo not shown) [Compound B12, 3-(2,6-difluoro-4-{4-[2-fluoro-3-(4-methyloxyhexyl)phenyl]thiazol-2-ylcarbamoyl}phenyl)-2-methylacrylic acid]"
5,1.39,"CCCOC(CC)c1cccc(-c2csc(NC(=O)c3cc(Cl)c(C=C(C)C(=O)O)c(Cl)c3)n2)c1F (stereo not shown) [Compound B81, 3-(2,6-dichloro-4-{4-[2-fluoro-3-(1-n-propyloxypropyl)phenyl]thiazol-2-ylcarbamoyl}phenyl)-2-methylacrylic acid]"
6,1.35,"CCCCCC(CCc1cccc(-c2csc(NC(=O)c3cc(Cl)c(C=C(C)C(=O)O)c(Cl)c3)n2)c1F)OC (stereo not shown) [Compound B73, 3-(2,6-dichloro-4-{4-[2-fluoro-3-(3-methyloxyoctyl)phenyl]thiazol-2-ylcarbamoyl}phenyl)-2-methylacrylic acid]"
7,0.81,"COC(CCC(C)C)c1cccc(-c2csc(NC(=O)c3cc(F)c(C=C(C)C(=O)O)c(F)c3)n2)c1F (stereo not shown) [Compound B11, 3-(2,6-difluoro-4-{4-[2-fluoro-3-(1-methyloxy-4-methylpentyl)phenyl]thiazol-2-ylcarbamoyl}phenyl)-2-methylacrylic acid]"
8,0.87,"CCCCOCCCc1cccc2c1CCc1sc(NC(=O)c3cc(Cl)c(C=C(C)C(=O)O)c(Cl)c3)nc1-2 [Compound A11, 3-{4-[6-(3-n-butyloxypropyl)-4,5-dihydronaphtho[1,2-d]thiazol-2-ylcabamoyl]-2,6-dichlorophenyl}-2-methylacrylic acid]"
9,0.78,"CCCCCCCCOC(C)c1cccc(-c2csc(NC(=O)c3cc(F)c(C=C(C)C(=O)O)c(F)c3)n2)c1F (stereo not shown) [Compound B30, 3-(2,6-difluoro-4-{4-[2-fluoro-3-(1-n-octyloxyethyl)phenyl]thiazol-2-ylcarbamoyl}phenyl)-2-methylacrylic acid]"
10,1.02,"CCCCCCCCCCC(OC)c1cccc(-c2csc(NC(=O)c3cc(Cl)c(C=C(C)C(=O)O)c(Cl)c3)n2)c1F (stereo not shown) [Compound B91, 3-(2,6-dichloro-4-{4-[2-fluoro-3-(1-methyloxyundecyl)phenyl]thiazol-2-ylcarbamoyl)phenyl]-2-methylacrylic acid]"
11,0.57,"3-[2,6-difluoro-4-(4-{2-fluoro-3-{1-(3-methylbutyloxypropyl)phenyl]thiazol-2-ylcarbamoyl}phenyl)-2-methylacrylic acid [Compound B18]"

# Same assay, conditions: 20 h + 4 h WST-1, ED50 = half concentration of the concentration showing the maximum thrombopoietic activity, Table 2
row,EC50 [nM],Compound
1,23.1,"CO/C(=C\c1c(Cl)cc(C(=O)Nc2nc(-c3cccc(COCCC(C)(C)C)c3OC)cs2)cc1Cl)C(=O)O [Compound B1937, (Z)-3-(2,6-dichloro-4-{4-[3-(3,3-dimethylbutyloxymethyl)-2-methyloxyphenyl]thiazol-2-ylcarbamoyl}phenyl)-2-methyloxyacrylic acid]"
2,25.8,"CCCCCCOCCc1cccc(-c2csc(NC(=O)c3cc(Cl)c(/C=C(\OC)C(=O)O)c(Cl)c3)n2)c1OC [Compound B1929, (Z)-3-(2,6-dichloro-4-{4-[3-(2-hexyloxyethyl)-2-methyloxyphenyl]thiazol-2-ylcarbamoyl)phenyl)-2-methyloxyacrylic acid]"
3,26.3,"CO/C(=C\c1c(F)cc(C(=O)Nc2nc(-c3cccc(C(OC)C(C)(C)C)c3F)c(OC)s2)cc1F)C(=O)O (stereo not shown) [Compound B1908, (Z)-3-(2,6-difluoro-4-{4-[2-fluoro-3-(1-methyloxy-2,2-dimethylpropyl)phenyl]-5-methyloxythiazol-2-ylcarbamoyl}phenyl)-2-methyloxyacrylic acid]"
4,23.2,"CO/C(=C\c1c(F)cc(C(=O)Nc2nc(-c3cccc(CCCOCC(C)(C)C)c3)c(OC)s2)cc1F)C(=O)O [Compound B1900, (Z)-3-[4-(4-{3-[3-(2,2-dimethylpropyloxy)propyl]phenyl}-5-methyloxythiazol-2-ylcarbamoyl)-2,6-difluorophenyl]-2-methyloxyacrylic acid]"
5,24.6,"CO/C(=C\c1c(F)cc(C(=O)Nc2nc(-c3cccc(CCCOCC(C)(C)C)c3F)c(OC)s2)cc1F)C(=O)O [Compound B1904, (Z)-3-[4-(4-{3-[3-(2,2-dimethylpropyloxy)propyl]-2-fluorophenyl}-5-methyloxythiazol-2-ylcarbamoyl)-2,6-difluorophenyl]-2-methyloxyacrylic acid]"
6,22.5,"CCC(CC)COCCCc1cccc(-c2csc(NC(=O)c3cc(Cl)c(/C=C(\C)C(=O)O)c(Cl)c3)n2)c1OC [Compound B1849, (E)-3-[2,6-dicholoro-4-(4-{3-[3-(2-ethylbutyloxy)propyl]-2-methyloxyphenyl}thiazol-2-ylcarbamoyl)phenyl]-2-methylacrylic acid]"
7,20.5,"CCCCCCCOc1cccc(-c2csc(NC(=O)c3cc(F)c(/C=C(\OC)C(=O)O)c(F)c3)n2)c1OC [Compound B2000, (Z)-3-{2,6-difluoro-4-[4-(3-heptyloxy-2-methyloxyphenyl)thiazol-2-ylcarbamoyl]phenyl}-2-methyloxyacrylic acid]"

row,Compound,EC50 [nM]
1,COc1c(OCCC2CCCCC2)cccc1-c1csc(NC(=O)c2cc(Cl)c(/C=C(\C)C(=O)O)c(Cl)c2)n1 [Compound B1918],21
